In ChEMBL document CHEMBL1909294, “Translating clinical findings into knowledge in drug safety evaluation--drug induced liver injury prediction system (DILIps)” (PLoS Comput Biol, 2011):

Legend:
Hepatotoxicity [1] = system: Hepatotoxicity;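 on HepSE cholecystitis: Cholecystitis-related hepatic side effect score drawn from the DILIps (drug-induced liver injury prediction) training data set; call rule not given here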; on HepSE hepatic failure: call rule not given here;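 on HepSE hepatic necrosis: score of hepatic side effects for hepatic necrosis, drawn from the training data of DILIps, a prediction system for drug-induced liver injury; call rule not given here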;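 on HepSE hepatomegaly: hepatic side effect score for hepatomegaly, taken from the training set of the DILIps drug-induced liver injury prediction system; call rule not given here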;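 on HepSE liver fatty: hepatic side effect score for fatty liver, taken from the DILIps training set for predicting drug-induced liver injury; call rule not given here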;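 on HepSE liver function tests abnormal: hepatic side effect score taken from the DILIps (drug-induced liver injury prediction system) training data, here covering abnormal liver function test findings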
Hepatotoxicity [2] = system: Hepatotoxicity; remark: listed apart in the source;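 on HepSE cholecystitis: Cholecystitis-related hepatic side effect score drawn from the DILIps (drug-induced liver injury prediction) training data set; call rule not given here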; on HepSE hepatic failure: call rule not given here;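 on HepSE hepatic necrosis: score of hepatic side effects for hepatic necrosis, drawn from the training data of DILIps, a prediction system for drug-induced liver injury; call rule not given here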;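 on HepSE hepatomegaly: hepatic side effect score for hepatomegaly, taken from the training set of the DILIps drug-induced liver injury prediction system; call rule not given here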;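 on HepSE liver fatty: hepatic side effect score for fatty liver, taken from the DILIps training set for predicting drug-induced liver injury; call rule not given here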;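 on HepSE liver function tests abnormal: hepatic side effect score taken from the DILIps (drug-induced liver injury prediction system) training data, here covering abnormal liver function test findings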
Hepatotoxicity [3] = system: Hepatotoxicity; remark: listed apart in the source;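 on HepSE cholecystitis: Cholecystitis-related hepatic side effect score drawn from the DILIps (drug-induced liver injury prediction) training data set; call rule not given here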; on HepSE hepatic failure: call rule not given here;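 on HepSE hepatic necrosis: score of hepatic side effects for hepatic necrosis, drawn from the training data of DILIps, a prediction system for drug-induced liver injury; call rule not given here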;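 on HepSE hepatomegaly: hepatic side effect score for hepatomegaly, taken from the training set of the DILIps drug-induced liver injury prediction system; call rule not given here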;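 on HepSE liver fatty: hepatic side effect score for fatty liver, taken from the DILIps training set for predicting drug-induced liver injury; call rule not given here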;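 on HepSE liver function tests abnormal: hepatic side effect score taken from the DILIps (drug-induced liver injury prediction system) training data, here covering abnormal liver function test findings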
Hepatotoxicity [4] = system: Hepatotoxicity; remark: listed apart in the source;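 on HepSE cholecystitis: Cholecystitis-related hepatic side effect score drawn from the DILIps (drug-induced liver injury prediction) training data set; call rule not given here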; on HepSE hepatic failure: call rule not given here;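 on HepSE hepatic necrosis: score of hepatic side effects for hepatic necrosis, drawn from the training data of DILIps, a prediction system for drug-induced liver injury; call rule not given here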;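 on HepSE hepatomegaly: hepatic side effect score for hepatomegaly, taken from the training set of the DILIps drug-induced liver injury prediction system; call rule not given here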;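 on HepSE liver fatty: hepatic side effect score for fatty liver, taken from the DILIps training set for predicting drug-induced liver injury; call rule not given here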;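 on HepSE liver function tests abnormal: hepatic side effect score taken from the DILIps (drug-induced liver injury prediction system) training data, here covering abnormal liver function test findings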
Hepatotoxicity [5] = system: Hepatotoxicity; remark: listed apart in the source; on HepSE hepatic failure: call rule not given here
Hepatotoxicity [6] = system: Hepatotoxicity; remark: listed apart in the source; on HepSE hepatic failure: call rule not given here
Hepatotoxicity [7] = system: Hepatotoxicity; remark: listed apart in the source
Hepatotoxicity [8] = system: Hepatotoxicity; remark: listed apart in the source
Hepatotoxicity [9] = system: Hepatotoxicity; remark: listed apart in the source
Hepatotoxicity [10] = system: Hepatotoxicity; remark: listed apart in the source
Hepatotoxicity [11] = system: Hepatotoxicity; remark: listed apart in the source
Hepatotoxicity [12] = system: Hepatotoxicity; remark: listed apart in the source
Hepatotoxicity [13] = system: Hepatotoxicity; remark: listed apart in the source
Hepatotoxicity [14] = system: Hepatotoxicity; remark: listed apart in the source

Row | Compound | HepSE_liver fatty (Hepatotoxicity [1]) | HepSE_hepatic necrosis (Hepatotoxicity [2]) | HepSE_hepatic failure (Hepatotoxicity [3]) | HepSE_liver function tests abnormal (Hepatotoxicity [4]) | HepSE_cholecystitis (Hepatotoxicity [5]) | HepSE_hepatomegaly (Hepatotoxicity [6]) | HepSE_hepatitis (Hepatotoxicity [7]) | HepSE_elevated liver function tests (Hepatotoxicity [8]) | HepSE_bilirubinemia (Hepatotoxicity [9]) | HepSE_cirrhosis (Hepatotoxicity [10]) | HepSE_jaundice (Hepatotoxicity [11]) | HepSE_liver disease (Hepatotoxicity [12]) | HepSE_Combined Scores (Hepatotoxicity [13]) | HepSE_cholelithiasis (Hepatotoxicity [14]) | other results
1 | CCCN1CCCC[C@H]1C(=O)Nc1c(C)cccc1C [ROPIVACAINE] | 0 | 0 | 0 | 0 | 0 | 0 | 0 | 0 | 0 | 0 | 1 | 0 | 1 | 0 | 
2 | COc1cc(NC(C)CCCN)c2ncccc2c1 (configuration not stated) [PRIMAQUINE] | 0 | 0 | 0 | 0 | 0 | 0 | 0 | 0 | 0 | 0 | 0 | 0 | 0 | 0 | 
3 | CN(CCOc1ccc(CC2SC(=O)NC2=O)cc1)c1ccccn1 (configuration not stated) [ROSIGLITAZONE] | 0 | 0 | 1 | 0 | 0 | 0 | 1 | 0 | 1 | 0 | 0 | 0 | 3 | 0 | 
4 | NC(=O)CC[C@H](N)C(=O)O [GLUTAMINE] | 0 | 0 | 0 | 0 | 0 | 0 | 0 | 0 | 0 | 0 | 0 | 0 | 0 | 0 | 
5 | GADOBUTROL | 0 | 0 | 0 | 0 | 0 | 0 | 0 | 0 | 0 | 0 | 0 | 0 | 0 | 0 | 
6 | N[C@@H](Cc1c[nH]c2ccccc12)C(=O)O [TRYPTOPHAN] | 0 | 0 | 0 | 0 | 0 | 0 | 0 | 0 | 0 | 0 | 0 | 0 | 0 | 0 | 
7 | CCOC(=O)C1(c2ccccc2)CCN(C)CC1 [MEPERIDINE] | 0 | 0 | 0 | 0 | 0 | 0 | 0 | 0 | 0 | 0 | 0 | 0 | 0 | 0 | 
8 | CC1(C)S[C@@H]2[C@H](NC(=O)COc3ccccc3)C(=O)N2[C@H]1C(=O)O [PENICILLIN V] | 0 | 0 | 0 | 0 | 0 | 0 | 0 | 0 | 0 | 0 | 0 | 0 | 0 | 0 | 
9 | O=C(O)c1cc(-c2ccc(F)cc2F)ccc1O [DIFLUNISAL] |  |  |  |  |  |  |  |  |  |  |  |  |  |  | HepSE_liver fatty (Hepatotoxicity [1]; Liver): 0; HepSE_hepatic necrosis (Hepatotoxicity [2]; Liver): 0; HepSE_hepatic failure (Hepatotoxicity [3]; Liver): 0; HepSE_liver function tests abnormal (Hepatotoxicity [4]; Liver): 0; HepSE_cholecystitis (Hepatotoxicity [5]; Liver): 0; HepSE_hepatomegaly (Hepatotoxicity [6]; Liver): 0; HepSE_hepatitis (Hepatotoxicity [7]; Liver): 1; HepSE_elevated liver function tests (Hepatotoxicity [8]; Liver): 0; HepSE_bilirubinemia (Hepatotoxicity [9]; Liver): 0; HepSE_cirrhosis (Hepatotoxicity [10]; Liver): 0; HepSE_jaundice (Hepatotoxicity [11]; Liver): 1; HepSE_liver disease (Hepatotoxicity [12]; Liver): 0; HepSE_Combined Scores (Hepatotoxicity [13]; Liver): 2; HepSE_cholelithiasis (Hepatotoxicity [14]; Liver): 0
10 | CC(COc1ccccc1)NC(C)C(O)c1ccc(O)cc1 (configuration not stated) [ISOXSUPRINE] | 0 | 0 | 0 | 0 | 0 | 0 | 0 | 0 | 0 | 0 | 0 | 0 | 0 | 0 | 
11 | CC[C@H](C)C(=O)O[C@H]1C[C@H](O)C=C2C=C[C@H](C)[C@H](CC[C@@H](O)C[C@@H](O)CC(=O)O)[C@H]21 [PRAVASTATIN] | 0 | 1 | 0 | 0 | 0 | 0 | 1 | 0 | 0 | 1 | 1 | 0 | 4 | 0 | 
12 | COc1ccc(C(CN(C)C)C2(O)CCCCC2)cc1 (configuration not stated) [VENLAFAXINE] | 1 | 0 | 0 | 0 | 1 | 0 | 1 | 0 | 1 | 1 | 1 | 0 | 7 | 1 | 
13 | NC12CC3CC(CC(C3)C1)C2 [AMANTADINE] | 0 | 0 | 0 | 0 | 0 | 0 | 0 | 0 | 0 | 0 | 0 | 0 | 0 | 0 | 
